Active and inactive are the calls of the source. No cut-off for these calls is given here. Where only a bound is given, the exact number is not on record here.

From ChEMBL document CHEMBL5625225, “Vinylphosphonate-based cyclic dinucleotides enhance STING-mediated cancer immunotherapy” (Eur J Med Chem, 2023) come the findings set out here.

The target in data set [1] is T1, Stimulator of interferon genes protein (Homo sapiens, UniProt Q86WV6). Nature of the data set: Agonist activity at wild type STING (unknown origin) expressed in HEK293T cells preincubated for 30 mins followed by washout and measured after 6.5 hrs by Bright-glo luciferase assay. The format is cell-based.
Target sequence in this assay (Q86WV6 whole entry): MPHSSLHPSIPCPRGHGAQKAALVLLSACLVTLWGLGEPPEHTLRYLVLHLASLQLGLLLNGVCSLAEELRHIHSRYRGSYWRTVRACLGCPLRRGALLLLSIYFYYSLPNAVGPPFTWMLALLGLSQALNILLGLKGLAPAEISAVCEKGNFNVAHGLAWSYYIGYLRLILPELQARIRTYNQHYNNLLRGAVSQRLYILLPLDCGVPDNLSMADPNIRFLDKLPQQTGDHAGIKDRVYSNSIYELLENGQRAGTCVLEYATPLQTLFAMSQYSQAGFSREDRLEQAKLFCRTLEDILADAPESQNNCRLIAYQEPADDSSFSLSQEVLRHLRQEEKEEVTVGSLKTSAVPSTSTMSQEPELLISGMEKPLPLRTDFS
Data set [2] has as its target T1, Stimulator of interferon genes protein. Nature of the data set: Agonist activity at wild type STING (unknown origin) expressed in HEK293T cells measured after 7 hrs by Bright-glo luciferase assay. The format is cell-based.
Target sequence in this assay (Q86WV6 whole entry): as above
Data set [3] can be described thus: Induction of cytokine production in human PBMC cells assessed as IFN-gamma level incubated for 60 mins followed by washout and measured after 15 hrs. Format: functional, cell-based.
Data set [4] in a line: Induction of cytokine production in human PBMC cells assessed as TNF-alpha level incubated for 60 mins followed by washout and measured after 15 hrs. Format: functional, cell-based.
The nature of data set [5]: Induction of cytokine production in human PBMC cells assessed as IFN-alpha level incubated for 60 mins followed by washout and measured after 15 hrs. Format: functional, cell-based.
The target in data set [6] is T1, Stimulator of interferon genes protein. Nature of the data set: Agonist activity at STING R232 mutant (unknown origin) expressed in digitonin -permeabilized HEK293T cells preincubated for 30 mins followed by washout and measured after 5 hrs by Bright-glo luciferase assay. Format: cell-based.
Target sequence in this assay (Q86WV6 whole entry, looked up, stated change not applied): as the sequence (Q86WV6 whole entry) above
The target of data set [7] is Stimulator of interferon genes protein (Homo sapiens, UniProt Q86WV6, G230A/R293Q/R71H). Nature of the data set: Agonist activity at STING R71H/G230A/R293Q mutant (unknown origin) expressed in digitonin -permeabilized HEK293T cells preincubated for 30 mins followed by washout and measured after 5 hrs by Bright-glo luciferase assay. Format: cell-based.
A short description of data set [8]: Agonist activity at STING R232H mutant (unknown origin) expressed in digitonin -permeabilized HEK293T cells preincubated for 30 mins followed by washout and measured after 5 hrs by Bright-glo luciferase assay. Format: cell-based. The settings on record: Homo sapiens, HEK-293T.
In data set [9] the target is Stimulator of interferon genes protein (Homo sapiens, UniProt Q86WV6, G230A/R293Q). Nature of the data set: Agonist activity at STING G230A/R293Q mutant (unknown origin) expressed in digitonin -permeabilized HEK293T cells preincubated for 30 mins followed by washout and measured after 5 hrs by Bright-glo luciferase assay. The format is cell-based.
In data set [10] the target is Stimulator of interferon genes protein (Homo sapiens, UniProt Q86WV6, R293Q). Nature of the data set: Agonist activity at STING R293Q mutant (unknown origin) expressed in digitonin -permeabilized HEK293T cells preincubated for 30 mins followed by washout and measured after 5 hrs by Bright-glo luciferase assay. Format: cell-based.
Data set [11] relates to Stimulator of interferon genes protein (Homo sapiens), Q86WV6 [UNDEFINED MUTATION]. The settings on record: filed as agonist.
Description: Binding affinity to STING R232 mutant (unknown origin) assessed as change in melting temperature by differential scanning fluorimetry analysis
Data set [12] deals with Stimulator of interferon genes protein (Homo sapiens), Q86WV6 [G230A,R293Q]. To be noted: filed as agonist.
Description: Binding affinity to STING G230A/R293Q mutant (unknown origin) assessed as change in melting temperature by differential scanning fluorimetry analysis
The nature of data set [13]: Stability in human plasma assessed as half life at 5 uM measured upto 120 mins by UPLC/MS analysis. The format is ADME, cell-free.
Data set [14] in a line: Stability in mouse plasma assessed as half life at 5 uM measured upto 120 mins by UPLC/MS analysis. Format: ADME, cell-free.
The test system of data set [15] is 4T1. Nature of the data set: Antitumor immunity against mouse 4T1 cells xenografted in BALB/c syngeneic mouse model assessed as reduction in tumor volume measured upto 22 days administered as IT(Intratumoral) dose. To be noted: time <= 22.0 day. Format: functional.
Data set [16] deals with 4T1. Nature of the data set: Antitumor immunity against mouse 4T1 cells xenografted in BALB/c syngeneic mouse model assessed as increase in AH1positive CD8 T cell level at 2 mg/kg, IT(Intratumoral) measured upto 22 days. Format: functional, organism-based. To be noted: time <= 22.0 day.

Stimulator of interferon genes protein (Homo sapiens), Q86WV6 [UNDEFINED MUTATION], sequence (Q86WV6 whole entry, looked up, stated change not applied): as the sequence (Q86WV6 whole entry) above
Stimulator of interferon genes protein (Homo sapiens), Q86WV6 [G230A,R293Q], sequence (Q86WV6 whole entry G230A/R293Q): as the sequence (Q86WV6 whole entry) above, with G230A, R293Q counted along it
Stimulator of interferon genes protein (Homo sapiens, UniProt Q86WV6, G230A/R293Q), sequence (Q86WV6 whole entry G230A/R293Q): as the sequence (Q86WV6 whole entry) above, with G230A, R293Q counted along it
Stimulator of interferon genes protein (Homo sapiens, UniProt Q86WV6, R293Q), sequence (Q86WV6 whole entry R293Q): as the sequence (Q86WV6 whole entry) above, with R293Q counted along it
Stimulator of interferon genes protein (Homo sapiens, UniProt Q86WV6, G230A/R293Q/R71H), sequence (Q86WV6 whole entry R71H/G230A/R293Q): as the sequence (Q86WV6 whole entry) above, with R71H, G230A, R293Q counted along it

As a reminder, the EC50 is the concentration that produces a half-maximal response. Consider `CC(C)OC(=O)OCOP1(=O)/C=C/[C@H]2O[C@@H](n3cnc4c(N)ncnc43)[C@H](F)[C@@H]2OP(=O)(OCOC(=O)OC(C)C)OC[C@H]2O[C@@H](n3cnc4c(N)ncnc43)[C@H](F)[C@@H]2O1` (stereo in doubt; 12C), for which the EC50 amounted to 250 nM in data set [1]; 70 nM in data set [2]; 1300 nM in [3] (Homo sapiens, PBMC); 250 nM in data set [4] (Homo sapiens, PBMC); 600 nM in data set [5] (Homo sapiens, PBMC).

In general, ΔTm refers to the shift of the melting midpoint relative to a reference. In the case of `Nc1nc2c(ncn2[C@@H]2O[C@@H]3/C=C/P(=O)(O)O[C@H]4[C@@H](F)[C@H](n5cnc6c(N)ncnc65)O[C@@H]4COP(=O)(O)O[C@H]3[C@H]2F)c(=O)[nH]1`, the EC50 stood at 20 nM in data set [6]; 60 nM in [7]; 320 nM in [8]; 80 nM in data set [9]; 460 nM in data set [10]. Moreover, the ΔTm in data set [11] stood at 9.4 °C; in data set [12], 15.2 °C.

Turning to `Nc1ncnc2c1ncn2[C@@H]1O[C@@H]2COP(=O)(O)O[C@H]3C[C@H](n4cnc5c(N)ncnc54)O[C@@H]3/C=C/P(=O)(O)O[C@H]2[C@H]1F`, the EC50 in data set [6] was 750 nM; in [7], 280 nM; in data set [8], over 45000 nM; in [9] it was 400 nM; in [10], 6570 nM. Also, the ΔTm in [11] stood at 2.3 °C; in data set [12] it was 8.2 °C.

Turning to `Nc1nc2c(ncn2[C@H]2C[C@@H]3OP(=O)(O)/C=C/[C@H]4O[C@@H](n5cnc6c(N)ncnc65)[C@H](F)[C@@H]4OP(=O)(O)OC[C@H]3O2)c(=O)[nH]1`, the EC50 worked out at 120 nM in data set [6]; 140 nM in data set [7]; 9500 nM in data set [8]; 130 nM in data set [9]; 2950 nM in [10]. The ΔTm was 5.2 °C in data set [11] and 11.4 °C in data set [12].

With `Nc1ncnc2c1ncn2[C@@H]1O[C@@H]2/C=C/P(=O)(O)O[C@H]3C[C@H](n4cnc5c(N)ncnc54)O[C@@H]3COP(=O)(O)O[C@H]2[C@H]1F`, the EC50 was 280 nM in data set [6]; 270 nM in data set [7]; over 45000 nM in data set [8]; 390 nM in data set [9]; 1500 nM in data set [10]; over 200000 nM in data set [1]. The response in data set [2] was half-maximal at 71700 nM (EC50). Besides, the results for the thermal shift (ΔTm) in [11] and in data set [12] were 2.7 °C and 8.9 °C, respectively.

On to `Nc1nc2c(ncn2[C@H]2C[C@@H]3OP(=O)(O)/C=C/[C@H]4O[C@@H](n5cnc6c(N)ncnc65)C[C@@H]4OP(=O)(O)OC[C@H]3O2)c(=O)[nH]1`, for which the EC50 in [6] was 10800 nM; in [7], 240 nM; in data set [8], over 45000 nM; in [9], 390 nM; in [10] it was over 45000 nM. The ΔTm was 0.9 °C in [11] and 4.5 °C in data set [12].

`Nc1nc2c(ncn2[C@@H]2O[C@@H]3COP(=O)(O)O[C@H]4C[C@H](n5cnc6c(N)ncnc65)O[C@@H]4/C=C/P(=O)(O)O[C@H]3[C@H]2F)c(=O)[nH]1`: the EC50 in [6] came to 700 nM; in data set [7] it was 350 nM; in data set [8], 25500 nM; in data set [9], 290 nM; in [10], 4150 nM. The shift in melting temperature (ΔTm) in data set [11] came to 4.8 °C; in data set [12], 11.9 °C.

Regarding `Nc1nc2c(ncn2[C@H]2C[C@@H]3OP(=O)(O)OC[C@H]4O[C@@H](n5cnc6c(N)ncnc65)C[C@@H]4OP(=O)(O)/C=C/[C@H]3O2)c(=O)[nH]1`, the EC50 is 780 nM in data set [6]; 440 nM in data set [7]; over 45000 nM in data set [8]; 210 nM in data set [9]; over 45000 nM in data set [10]. Further, the ΔTm in [11] worked out at 1.9 °C; in data set [12] it was 8.6 °C.

Take `CC(C)(C)C(=O)OCOP1(=O)/C=C/[C@H]2O[C@@H](n3cnc4c(N)ncnc43)[C@H](F)[C@@H]2OP(=O)(OCOC(=O)C(C)(C)C)OC[C@H]2O[C@@H](n3cnc4c(N)ncnc43)[C@H](F)[C@@H]2O1` (stereo in doubt; 11B): the 50% effective concentration (EC50) in data set [1] turned out to be 30 nM; in [2], 22 nM; in data set [3] (pbmc), 750 nM; in data set [4] (pbmc), 330 nM; in data set [5] (pbmc), 350 nM.

What is called half-life is the time in which the quantity being followed falls by half. In the case of `CCCCCCCC(=O)OCOP1(=O)/C=C/[C@H]2O[C@@H](n3cnc4c(N)ncnc43)[C@H](F)[C@@H]2OP(=O)(OCOC(=O)CCCCCCC)OC[C@H]2O[C@@H](n3cnc4c(N)ncnc43)[C@H](F)[C@@H]2O1` (stereo in doubt; 15C), the EC50 in [1] is 5 nM; in [2], 3 nM; in data set [3] (pbmc) it was 170 nM; in data set [4] (pbmc), 280 nM; in data set [5] (pbmc) it was 120 nM. Moreover, the half-life at 5 µM was 19 min in data set [13] and 3 min in data set [14].

As to `CCCCCCCC(=O)OCOP1(=O)/C=C/[C@H]2O[C@@H](n3cnc4c(N)ncnc43)[C@H](F)[C@@H]2OP(=O)(OCOC(=O)CCCCCCC)OC[C@H]2O[C@@H](n3cnc4c(N)ncnc43)[C@H](F)[C@@H]2O1` (stereo in doubt; 15B), the EC50 amounted to 4 nM in data set [1]; 3 nM in data set [2]; 60 nM in data set [3] (pbmc); 70 nM in [4] (pbmc); 80 nM in [5] (Homo sapiens, PBMC).

With `Nc1nc2c(ncn2[C@@H]2O[C@@H]3/C=C/P(=O)(O)O[C@H]4[C@@H](F)[C@H](n5cnc6c(=O)[nH]c(N)nc65)O[C@@H]4COP(=O)(O)O[C@H]3[C@H]2F)c(=O)[nH]1`, the EC50 in data set [6] came to 500 nM; in [7], 950 nM; in data set [8] it was 3690 nM; in [9], 950 nM; in data set [10], 8650 nM. In addition, the ΔTm in data set [11] was 3.4 °C; in [12] it was 8.8 °C.

`CC(C)(C)C(=O)OCOP1(=O)/C=C/[C@H]2O[C@@H](n3cnc4c(N)ncnc43)[C@H](F)[C@@H]2OP(=O)(OCOC(=O)C(C)(C)C)OC[C@H]2O[C@@H](n3cnc4c(N)ncnc43)[C@H](F)[C@@H]2O1` (stereo in doubt; 11C): the EC50 in [1] was 10 nM; in [2], 12 nM; in data set [3] (pbmc) it was 50 nM; in [4] (pbmc), 40 nM; in data set [5] (pbmc), 60 nM. Moreover, the results for the half-life at 5 µM in [13] and in data set [14] were 49 min and 4 min, respectively.

As to `CC1(C(=O)OCOP2(=O)/C=C/[C@H]3O[C@@H](n4cnc5c(N)ncnc54)[C@H](F)[C@@H]3OP(=O)(OCOC(=O)C3(C)CCCCC3)OC[C@H]3O[C@@H](n4cnc5c(N)ncnc54)[C@H](F)[C@@H]3O2)CCCCC1` (stereo in doubt; 14C), the Activity result in the data set with 4T1 [15] was “Dose-Dependent Effect”. Besides, the outcome with 4T1 [16] was Active.

`CC1(C(=O)OCOP2(=O)/C=C/[C@H]3O[C@@H](n4cnc5c(N)ncnc54)[C@H](F)[C@@H]3OP(=O)(OCOC(=O)C3(C)CCCCC3)OC[C@H]3O[C@@H](n4cnc5c(N)ncnc54)[C@H](F)[C@@H]3O2)CCCCC1` (stereo in doubt; 14B): the EC50 was found to be 225 nM in data set [1]; 80 nM in [2]; 250 nM in data set [3] (pbmc); 140 nM in [4] (pbmc); 300 nM in data set [5] (pbmc).

Take `CCC(C)(C)C(=O)OCOP1(=O)/C=C/[C@H]2O[C@@H](n3cnc4c(N)ncnc43)[C@H](F)[C@@H]2OP(=O)(OCOC(=O)C(C)(C)CC)OC[C@H]2O[C@@H](n3cnc4c(N)ncnc43)[C@H](F)[C@@H]2O1` (stereo in doubt; 13C): the EC50 was found to be 35 nM in data set [1]; 7 nM in [2]; 20 nM in data set [3] (Homo sapiens, PBMC); 120 nM in data set [4] (Homo sapiens, PBMC); 60 nM in data set [5] (Homo sapiens, PBMC). The half-life at 5 µM came to 86 min in [13] and 4 min in [14].
